Laboratory results as given in patent publication US10894069B2, “Topical antiviral formulations and methods of using the same” (priority 2015, dated 2021).

Tests used:
[1] = cited from earlier work
[2] = test system: Herpes simplex; assay: Informal patient trials, topical treatment of Herpes simplex of the lips / herpes labialis; format: in vivo, human; conditions: person; for benefit of prior therapy, orally: oral
[3] = test system: herpes genitalias; assay: Patient case, topical treatment of herpes genitalis; format: in vivo, human; conditions: person, high dose
Method: Operating with informed consent, individuals treated with the topical composition and the methods of the present invention for treating herpes virus infection, more particularly Herpes simplex and herpes zoster or shingles, as described in Examples 3 to 8.
A person presented with a decade or longer history of herpes genitalias recurring on the epithelium of the penis, more specifically the shaft. […] The patient was then treated with Composition B of the cannabinoid rich topical of Example 1 one to two times a day.

[4] = cited from earlier work; remark: listed apart in the source

CCCCCc1cc(O)c2c(c1)OC(C)(C)[C@@H]1CCC(C)=C[C@@H]21 [THC, delta-9-tetrahydrocannabinol]
solubility in organic solvents ([1]; specifically lipids and alcohols): good solubility in most organic solvents

CC(C)[C@H](N)C(=O)OCCOCn1cnc2c(=O)[nH]c(N)nc21 [Valtrex, valacyclovir]
satisfaction with prior therapy ([2]; high doses): without total satisfaction | benefit of prior therapy, orally [2]: slight benefit | response of severe pain with burning and tingling to prior therapy [3]: had not responded

Nc1nc2c(ncn2COCCO)c(=O)[nH]1 [Zovirax, acyclovir]
benefit of prior therapy, orally [2]: slight benefit | benefit of prior therapy, topically ([2]; topical): without benefit

Nc1nc2c(ncn2COCCO)c(=O)[nH]1 [acyclovir]
concentrations in the skin following topical application versus following oral administration [4]: 2-3 times lower | solubility in water [1]: poor water-solubility
